Test results as given in publication PMC10439230 (Scientific Reports, 2023).

Key:
[1] = system: MRC-5 normal embryonic lung fibroblast cell line; assay: Cytotoxic activity assay (MTT), normal cells; type: cell-based; settings: Homo sapiens, MRC5, 48 h exposure, read-out: Cell lines, IC50 (μM) MRC-5
Excerpt: (§1) The synthetic compounds were screened for their cytotoxic activity using standard MTT or XTT methods[30] against a panel of nine human cancer cell lines and one normal cell line, including MDA-MB-231 (triple-negative breast cancer), T-47D (hormone-dependent breast cancer), HepG2 (hepatocellular carcinoma), A549 (lung adenocarcinoma), H69AR (multidrug-resistant small cell lung carcinoma), HuCCA-1 (cholangiocarcinoma derived from a patient), HeLa (cervical carcinoma), and two leukemia cell lines, HL-60 (acute promyelocytic leukemia) and MOLT-3 (T cell acute lymphoblastic leukemia). MRC-5 normal embryonic lung fibroblast cell line was used to represent normal cells. Chemotherapeutic drugs, doxorubicin and etoposide, were used as positive controls.
(§2) The cells were seeded into 96-well plates (100 µL for adherent cells and 75 µL for suspended cells) at a density of 5000–20,000 cells per well, depending on their growth rates. Adherent and suspended cells were then allowed to grow at 37 °C with 95% humidity and 5% CO2 for 24 h and 30 min, respectively. The cytotoxicity assay was initiated by adding an equal volume of cell culture medium containing tested compound at predetermined concentrations. Following 48 h of exposure, cell viability was determined using MTT assay for adherent cells[51],[52]or XTT assay for suspeended cells. Briefly, for adherent cells, 100 µL of the MTT reagent was added to each well, and the microtiter plates were further incubated for 2.5–4 h. The medium was subsequently replaced with 100 µL of DMSO to dissolve the purple formazan before the absorbance at 550 nm was measured using a microplate reader (a SpectraMax Plus 384) with a reference wavelength of 650 nm. For suspended cells, 75 µL of the XTT reagent was added to each well, and the cells were further incubated for 4 h. Afterwards, the absorbance of orange formazan at 492 nm was measured with a reference wavelength of 690 nm using a microplate reader.

[2] = system: HeLa (cervical carcinoma); assay: Cytotoxic activity assay (MTT); type: cell-based, human; settings: for IC50: Homo sapiens, 48 h exposure, MTT, read-out: Cell lines, IC50 (μM) HeLa; for Selectivity Index (SI) values HeLa: SI = IC50 normal cell (MRC-5)/ IC50 cancer cell
Excerpt: as §1, §2

[3] = system: A549 (lung adenocarcinoma); assay: Cytotoxic activity assay (MTT); type: cell-based, human; settings: for IC50: Homo sapiens, A549, 48 h exposure, MTT, read-out: Cell lines, IC50 (μM) A549; for Selectivity Index (SI) values A549: SI = IC50 normal cell (MRC-5)/ IC50 cancer cell
Excerpt: as §1, §2

[4] = system: T-47D (hormone-dependent breast cancer); assay: Cytotoxic activity assay (MTT); type: cell-based, human; settings: for IC50: Homo sapiens, T47D, 48 h exposure, MTT, read-out: Cell lines, IC50 (μM) T47-D; for Selectivity Index (SI) values T47-D: SI = IC50 normal cell (MRC-5)/ IC50 cancer cell
Excerpt: as §1, §2

[5] = system: MDA-MB-231 (triple-negative breast cancer); assay: Cytotoxic activity assay (MTT); type: cell-based, human; settings: for IC50: Homo sapiens, MDA-MB-231, 48 h exposure, MTT, read-out: Cell lines, IC50 (μM) MDA-MB-231; for Selectivity Index (SI) values MDA-MB-231: SI = IC50 normal cell (MRC-5)/ IC50 cancer cell
Excerpt: as §1, §2

[6] = system: HepG2 (hepatocellular carcinoma); assay: Cytotoxic activity assay (MTT); type: cell-based, human; settings: for IC50: Homo sapiens, HepG2, 48 h exposure, MTT, read-out: Cell lines, IC50 (μM) HepG2; for Selectivity Index (SI) values HepG2: SI = IC50 normal cell (MRC-5)/ IC50 cancer cell
Excerpt: as §1, §2

[7] = system: H69AR (multidrug-resistant small cell lung carcinoma); assay: Cytotoxic activity assay (MTT); type: cell-based, human; settings: for IC50: Homo sapiens, H69AR, 48 h exposure, MTT, read-out: Cell lines, IC50 (μM) H69AR; for Selectivity Index (SI) values H69AR: SI = IC50 normal cell (MRC-5)/ IC50 cancer cell
Excerpt: as §1, §2

[8] = system: HuCCA-1 (cholangiocarcinoma derived from a patient); assay: Cytotoxic activity assay (MTT); type: cell-based, human; settings: for IC50: Homo sapiens, HuCC-A1, 48 h exposure, MTT, read-out: Cell lines, IC50 (μM) HuCCA-1; for Selectivity Index (SI) values HuCCA-1: SI = IC50 normal cell (MRC-5)/ IC50 cancer cell
Excerpt: as §1, §2

[9] = system: HL-60 (acute promyelocytic leukemia); assay: Cytotoxic activity assay (XTT); type: cell-based, human; settings: for IC50: Homo sapiens, HL-60, 48 h exposure, XTT, read-out: Cell lines, IC50 (μM) HL-60; for Selectivity Index (SI) values HL-60: SI = IC50 normal cell (MRC-5)/ IC50 cancer cell
Excerpt: as §1, §2

[10] = system: MOLT-3 (T cell acute lymphoblastic leukemia); assay: Cytotoxic activity assay (XTT); type: cell-based, human; settings: for IC50: Homo sapiens, MOLT-3, 48 h exposure, XTT, read-out: Cell lines, IC50 (μM) MOLT-3; for Selectivity Index (SI) values MOLT-3: SI = IC50 normal cell (MRC-5)/ IC50 cancer cell
Excerpt: as §1, §2

**Q.** For `C=C1CC[C@H]2C(C)(C)CCC[C@]2(C)[C@H]1CC/C(C)=C/C(=O)NCCCCCCCC` [Compound 4d, (E)-3-Methyl-N-octyl-5-((1S,4aS,8aS)-5,5,8a-trimethyl-2-methylenedecahydronaphthalen-1-yl)pent-2-enamide], which IC50 [1] is on record?
**A.** The IC50 was over 120 µM.

**Q.** And the IC50 [2]?
**A.** The IC50 was over 120 µM.

**Q.** And the “Selectivity Index (SI) values HeLa” value [2]?
**A.** Its value is 1.0.

**Q.** And the IC50 [3]?
**A.** Its IC50 is over 120 µM.

**Q.** And the “Selectivity Index (SI) values A549” value [3]?
**A.** Its value is 1.0.

**Q.** And the IC50 [4]?
**A.** The IC50 was over 120 µM.

**Q.** And the “Selectivity Index (SI) values T47-D” value [4]?
**A.** The value was 1.0.

**Q.** And the IC50 [5]?
**A.** Its IC50 is over 120 µM.

**Q.** What about the “Selectivity Index (SI) values MDA-MB-231” value [5] of the same compound?
**A.** The value was 1.0.

**Q.** And the IC50 [6]?
**A.** The IC50 was over 120 µM.

**Q.** What about the “Selectivity Index (SI) values HepG2” value [6] of the same compound?
**A.** The value was 1.0.

**Q.** What about the IC50 [7] of the same compound?
**A.** Its IC50 is over 120 µM.

**Q.** And the “Selectivity Index (SI) values H69AR” value [7]?
**A.** The value was 1.0.

**Q.** And the IC50 [8]?
**A.** Its IC50 is over 120 µM.

**Q.** And the “Selectivity Index (SI) values HuCCA-1” value [8]?
**A.** Its value is 1.0.

**Q.** What about the IC50 [9] of the same compound?
**A.** Its IC50 is over 120 µM.

**Q.** What about the “Selectivity Index (SI) values HL-60” value [9] of the same compound?
**A.** The value was 1.0.

**Q.** And the IC50 [10]?
**A.** The IC50 was over 120 µM.

**Q.** What about the “Selectivity Index (SI) values MOLT-3” value [10] of the same compound?
**A.** Its value is 1.0.

**Q.** What does the source list for `C=C1CC[C@H]2C(C)(C)CCC[C@]2(C)[C@H]1CC/C(C)=C/C(=O)NCCc1c[nH]c2ccccc12` [Compound 4h, (E)-N-(2-(1H-Indol-3-yl)ethyl)-3-methyl-5-((1S,4aS,8aS)-5,5,8a-trimethyl-2-methylenedecahydronaphthalen-1-yl)pent-2-enamide]?
**A.** IC50 [1]: 48.2 ± 1.06 µM; IC50 [2]: 20.7 ± 0.4 µM; Selectivity Index (SI) values HeLa [2]: 2.3; IC50 [3]: 41.4 ± 2.48 µM; Selectivity Index (SI) values A549 [3]: 1.2; IC50 [4]: > 120 µM; Selectivity Index (SI) values T47-D [4]: 0.4; IC50 [5]: 23.5 ± 0.36 µM; Selectivity Index (SI) values MDA-MB-231 [5]: 2.1; IC50 [6]: 40.5 ± 2.25 µM; Selectivity Index (SI) values HepG2 [6]: 1.2; IC50 [7]: 71.5 ± 2.47 µM; Selectivity Index (SI) values H69AR [7]: 0.7; IC50 [8]: 42.4 ± 0.5 µM; Selectivity Index (SI) values HuCCA-1 [8]: 1.1; IC50 [9]: 16.8 ± 0.61 µM; Selectivity Index (SI) values HL-60 [9]: 2.9; IC50 [10]: 17.1 ± 0.57 µM; Selectivity Index (SI) values MOLT-3 [10]: 2.8

**Q.** For `C=C1CC[C@H]2C(C)(C)CCC[C@]2(C)[C@H]1CC/C(C)=C/C(=O)Nc1ccccc1` [Compound 4e, (E)-3-Methyl-N-phenyl-5-((1S,4aS,8aS)-5,5,8a-trimethyl-2-methylene-decahydronaphthalen-1-yl)pent-2-enamide], which IC50 [1] is on record?
**A.** The IC50 was over 120 µM.

**Q.** What about the IC50 [2] of the same compound?
**A.** Its IC50 is 98.11 ± 0.08 µM.

**Q.** And the “Selectivity Index (SI) values HeLa” value [2]?
**A.** Its value is 1.3.

**Q.** And the IC50 [3]?
**A.** The IC50 was 46.9 ± 1.28 µM.

**Q.** And the “Selectivity Index (SI) values A549” value [3]?
**A.** The value was 2.8.

**Q.** What about the IC50 [4] of the same compound?
**A.** Its IC50 is over 120 µM.

**Q.** What about the “Selectivity Index (SI) values T47-D” value [4] of the same compound?
**A.** The value was 1.0.

**Q.** And the IC50 [5]?
**A.** The IC50 was over 120 µM.

**Q.** What about the “Selectivity Index (SI) values MDA-MB-231” value [5] of the same compound?
**A.** Its value is 1.0.

**Q.** And the IC50 [6]?
**A.** The IC50 was over 120 µM.

**Q.** What about the “Selectivity Index (SI) values HepG2” value [6] of the same compound?
**A.** Its value is 1.0.

**Q.** What about the IC50 [7] of the same compound?
**A.** The IC50 was over 120 µM.

**Q.** And the “Selectivity Index (SI) values H69AR” value [7]?
**A.** Its value is 1.0.

**Q.** And the IC50 [8]?
**A.** The IC50 was over 120 µM.

**Q.** And the “Selectivity Index (SI) values HuCCA-1” value [8]?
**A.** Its value is 1.0.

**Q.** What about the IC50 [9] of the same compound?
**A.** The IC50 was 60.6 ± 4.97 µM.

**Q.** And the “Selectivity Index (SI) values HL-60” value [9]?
**A.** The value was 2.2.

**Q.** What about the IC50 [10] of the same compound?
**A.** Its IC50 is 25.9 ± 1.88 µM.

**Q.** And the “Selectivity Index (SI) values MOLT-3” value [10]?
**A.** The value was 5.1.

**Q.** Which results are given for `C#CCNC(=O)/C=C(\C)CC[C@H]1C(=C)CC[C@H]2C(C)(C)CCC[C@]12C` [Compound 4c, (E)-3-Methyl-N-(prop-2-yn-1-yl)-5-((1S,4aS,8aS)-5,5,8a-trimethyl-2-methylenedecahydronaphthalen-1-yl)pent-2-enamide]?
**A.** IC50 [1]: 48.1 ± 0.62 µM; IC50 [2]: 28.1 ± 0.93 µM; Selectivity Index (SI) values HeLa [2]: 1.7; IC50 [3]: 54.1 ± 1.17 µM; Selectivity Index (SI) values A549 [3]: 0.9; IC50 [4]: 76.6 ± 4.68 µM; Selectivity Index (SI) values T47-D [4]: 0.6; IC50 [5]: 27.5 ± 0.62 µM; Selectivity Index (SI) values MDA-MB-231 [5]: 1.8; IC50 [6]: 85.06 ± 0.61 µM; Selectivity Index (SI) values HepG2 [6]: 0.6; IC50 [7]: 113 ± 1.35 µM; Selectivity Index (SI) values H69AR [7]: 0.4; IC50 [8]: 52.7 ± 0.11 µM; Selectivity Index (SI) values HuCCA-1 [8]: 0.9; IC50 [9]: 24.13 ± 0.08 µM; Selectivity Index (SI) values HL-60 [9]: 2.0; IC50 [10]: 23.2 ± 1.03 µM; Selectivity Index (SI) values MOLT-3 [10]: 2.1
